Laboratory results: patent publication US20230382940A1, “ANTIVIRAL COMPOUNDS AND METHODS OF MAKING AND USING THE SAME” (Gilead Sciences, Inc., priority 2022, published 2023)

Tests used:
[1] = system: Human Rhinovirus 16 (HRV16); test: H1-HeLa HRV-CTG 384-well assay, HRV16, Example X; format: cell-based; conditions: Rhinovirus A, 96 h; H1-HeLa cells, HRV16 MOI 0.25, 4 days, Celltiter-Glo; read-out: EC50 H1-HeLa_HRV 16_HRV-CTG 384-well Assay (per Ex. X)
In short: (§1)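 H1-HeLa cells (5,000/well, DMEM 2% FBS) infected with HRV1B, HRV14 or HRV16 at MOI 0.5, 1.0 and 0.25 respectively, with 10-point 1:3 compound dilutions; 4 days at 37 °C. Viability by CellTiter-Glo luminescence, normalized to rupintrivir and DMSO controls; EC50 by non-linear regression.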

[2] = system: Human Rhinovirus 1B (HRV1B); test: H1-HeLa HRV-CTG 384-well assay, HRV1B, Example X; format: cell-based; conditions: Rhinovirus A, 96 h; H1-HeLa cells, HRV1B MOI 0.5, 4 days, Celltiter-Glo; read-out: EC50 H1-HeLa_HRV 1B_HRV-CTG 384-well Assay (per Ex. X)
In short: as §1

[3] = system: Human Rhinovirus 14 (HRV14); test: H1-HeLa HRV-CTG 384-well assay, HRV14, Example X; format: cell-based; conditions: Rhinovirus B, 96 h; H1-HeLa cells, HRV14 MOI 1.0, 4 days, Celltiter-Glo; read-out: EC50 H1-HeLa_HRV 14_HRV-CTG 384-well Assay (per Ex. X)
In short: as §1

[4] = GI S9 stability, human, Example Y; format: in vitro ADME; conditions: pooled intestinal S9 fractions; human intestinal S9, 1.0 mg/mL protein, 2 μM compound, pH 7.4; read-out: GIS9 Human T½ (per Ex. Y)
Method: (§2) Example Y: GI S9 Stability Data
(§3) Stock solutions of test compounds in dimethyl sulfoxide (DMSO) having a final concentration of 10 mM were prepared and used in all experiments. Sekisui XenoTech (Kansas City, KS) provided pooled intestinal S9 fractions. All other chemicals were purchased from Sigma-Aldrich (St. Louis, MO) or VWR (West Chester, PA). Internal Standard/Quench (IS/Q) used to stop reactions was 100 nM labetalol in (by volume) methanol (10%) and acetonitrile (90%).
(§4) Stability in Intestinal S9 Fractions: Duplicate aliquots of test compound or positive control substrate were added to S9 stock diluted with phosphate buffered saline (137 mM NaCl, 2.7 mM KCl, 10 mM phosphate buffer), pH 7.4, to obtain a protein concentration of 1.0 mg/mL. The metabolic reactions were initiated by the addition of the substrates to the S9 reaction mixture to a final concentration of 2 μM. At 0, 10, 20, 30, 60 and 120 min, 25 μL aliquots of the reaction mixture were transferred to plates containing 225 μl of IS/Q solution. After quenching, the plates were centrifuged at 3000×g for 30 minutes. 150 μL aliquots of each supernatant were dried down then reconstituted with 300 μL water. Aliquots (10 μL) of the prepared samples were analyzed on a Thermo Q-Exactive mass spectrometer as described below.
(§5) Liquid Chromatography—Mass Spectrometry: Quantification of test compounds and control substrate was performed by analyte/internal standard peak area ratio (PAR) values measured on a Thermo Q-Exactive mass spectrometer coupled to a Dionex UltiMate 3000 HPLC with a Leap Technologies HTC PAL autosampler. The column used for analysis was a Waters Acquity BEH C18 (1.7 μm particle size, 2.1×50 mm). Mobile phase A consisted of 0.1% (v/v) formic acid in water. Mobile phase B consisted of 0.1% (v/v) formic acid in acetonitrile. Elution of analytes was achieved by a series of linear gradients varying the proportions of A and B. The mass spectrometer was calibrated on a weekly basis and mass tolerance of 5 ppm was used.
(§6) Metabolic stabilities in S9 fractions were determined by measuring the rates of disappearance of test compound and positive control substrate.
(§7) Data (% of substrate remaining) were plotted on a semi-log scale and fitted using an exponential decline model:
(§8) Ct=C0×e^−ln2/T1/2×t • Where Ct—% of substrate remaining at time=t; C0—% of substrate remaining at time=0; t—time; T1/2—half-life. • The Half-life (T1/2) is determined by the following equation: […]
(§9) Assuming a first-order reaction, the slope (k) is extrapolated from the aforementioned plotted data.

[5] = GI S9 stability, rat, Example Y; format: in vitro ADME; conditions: pooled intestinal S9 fractions; rat intestinal S9, 1.0 mg/mL protein, 2 μM compound, pH 7.4; read-out: GIS9 Rat T½ (per Ex. Y)
Method: as §2, §3, §4, §5, §6, §7, §8, §9

SMILES	EC50 [1] [µM]	EC50 [2] [µM]	EC50 [3] [µM]	half-life at 2 μM [4] [min]	half-life at 2 μM [5] [min]
N#C[C@]1(COC(=O)OC2CC2)O[C@@H](c2ccc3c(N)ncnn23)[C@H](O)[C@@H]1O [Compound 23, ((2R,3S,4R,5S)-5-(4-aminopyrrolo[2,1-f][1,2,4]triazin-7-yl)-2-cyano-3,4-dihydroxytetrahydrofuran-2-yl)methyl cyclopropyl carbonate]	9.64	5.32	11.4	19	9
N#C[C@]1(COC(=O)O[C@@H]2CCOC2)O[C@@H](c2ccc3c(N)ncnn23)[C@H](O)[C@@H]1O [Compound 24, ((2R,3S,4R,5S)-5-(4-aminopyrrolo[2,1-f][1,2,4]triazin-7-yl)-2-cyano-3,4-dihydroxytetrahydrofuran-2-yl)methyl ((R)-tetrahydrofuran-3-yl) carbonate]	14.1	6.75	10.2	178	47
CC[C@H](C)COC(=O)OC[C@@]1(C#N)O[C@@H](c2ccc3c(N)ncnn23)[C@H](O)[C@@H]1O [Compound 28, ((2R,3S,4R,5S)-5-(4-aminopyrrolo[2,1-f][1,2,4]triazin-7-yl)-2-cyano-3,4-dihydroxytetrahydrofuran-2-yl)methyl ((S)-2-methylbutyl) carbonate]	9.51	3.53	8.73	18	4
N#C[C@]1(COC(=O)OCc2ccccc2)O[C@@H](c2ccc3c(N)ncnn23)[C@H](O)[C@@H]1O [Compound 29, ((2R,3S,4R,5S)-5-(4-aminopyrrolo[2,1-f][1,2,4]triazin-7-yl)-2-cyano-3,4-dihydroxytetrahydrofuran-2-yl)methyl benzyl carbonate]	9.86	3.26	8.06	15	3
N#C[C@]1(COC(=O)OCC2CCCC2)O[C@@H](c2ccc3c(N)ncnn23)[C@H](O)[C@@H]1O [Compound 30, ((2R,3S,4R,5S)-5-(4-aminopyrrolo[2,1-f][1,2,4]triazin-7-yl)-2-cyano-3,4-dihydroxytetrahydrofuran-2-yl)methyl (cyclopentylmethyl) carbonate]	8.88	3.12	5.58	15	3
CCC(CC)COC(=O)OC[C@@]1(C#N)O[C@@H](c2ccc3c(N)ncnn23)[C@H](O)[C@@H]1O [Compound 31, ((2R,3S,4R,5S)-5-(4-aminopyrrolo[2,1-f][1,2,4]triazin-7-yl)-2-cyano-3,4-dihydroxytetrahydrofuran-2-yl)methyl (2-ethylbutyl) carbonate]	9.07	3.16	7.62	18	3
N#C[C@]1(COC(=O)OCC2CC2)O[C@@H](c2ccc3c(N)ncnn23)[C@H](O)[C@@H]1O [Compound 32, ((2R,3S,4R,5S)-5-(4-aminopyrrolo[2,1-f][1,2,4]triazin-7-yl)-2-cyano-3,4-dihydroxytetrahydrofuran-2-yl)methyl (cyclopropylmethyl) carbonate]	12.1	5.69	11.5	33	8
N#C[C@]1(COC(=O)O[C@H]2CCOC2)O[C@@H](c2ccc3c(N)ncnn23)[C@H](O)[C@@H]1O [Compound 33, ((2R,3S,4R,5S)-5-(4-aminopyrrolo[2,1-f][1,2,4]triazin-7-yl)-2-cyano-3,4-dihydroxytetrahydrofuran-2-yl)methyl ((S)-tetrahydrofuran-3-yl) carbonate]	18.5	8.7	15.6	250	58
CCCOCCOC(=O)OC[C@@]1(C#N)O[C@@H](c2ccc3c(N)ncnn23)[C@H](O)[C@@H]1O [Compound 34, ((2R,3S,4R,5S)-5-(4-aminopyrrolo[2,1-f][1,2,4]triazin-7-yl)-2-cyano-3,4-dihydroxytetrahydrofuran-2-yl)methyl (2-propoxyethyl) carbonate]	12.1	7.31	14	108	11
CC(C)(C)CCOC(=O)OC[C@@]1(C#N)O[C@@H](c2ccc3c(N)ncnn23)[C@H](O)[C@@H]1O [Compound 35, ((2R,3S,4R,5S)-5-(4-aminopyrrolo[2,1-f][1,2,4]triazin-7-yl)-2-cyano-3,4-dihydroxytetrahydrofuran-2-yl)methyl (3,3-dimethylbutyl) carbonate]	15.1	8.63	12.2	19	4
N#C[C@]1(COC(=O)OC2CC3(CCC3)C2)O[C@@H](c2ccc3c(N)ncnn23)[C@H](O)[C@@H]1O [Compound 36, ((2R,3S,4R,5S)-5-(4-aminopyrrolo[2,1-f][1,2,4]triazin-7-yl)-2-cyano-3,4-dihydroxytetrahydrofuran-2-yl)methyl spiro[3.3]heptan-2-yl carbonate]	12	5.93	10.6	14	3
CC1(C)CC(OC(=O)OC[C@@]2(C#N)O[C@@H](c3ccc4c(N)ncnn34)[C@H](O)[C@@H]2O)C1 [Compound 37, ((2R,3S,4R,5S)-5-(4-aminopyrrolo[2,1-f][1,2,4]triazin-7-yl)-2-cyano-3,4-dihydroxytetrahydrofuran-2-yl)methyl (3,3-dimethylcyclobutyl) carbonate]	12.6	6.74	20.5	29	4
COC[C@@H](C)OC(=O)OC[C@@]1(C#N)O[C@@H](c2ccc3c(N)ncnn23)[C@H](O)[C@@H]1O [Compound 38, ((2R,3S,4R,5S)-5-(4-aminopyrrolo[2,1-f][1,2,4]triazin-7-yl)-2-cyano-3,4-dihydroxytetrahydrofuran-2-yl)methyl ((R)-1-methoxypropan-2-yl) carbonate]	40	23.8	24.4	292	38
N#C[C@]1(COC(=O)O[C@@H]2C[C@@H]3C[C@@H]3C2)O[C@@H](c2ccc3c(N)ncnn23)[C@H](O)[C@@H]1O [Compound 39, ((2R,3S,4R,5S)-5-(4-aminopyrrolo[2,1-f][1,2,4]triazin-7-yl)-2-cyano-3,4-dihydroxytetrahydrofuran-2-yl)methyl ((1R,3r,5S)-bicyclo[3.1.0]hexan-3-yl) carbonate]	22	8.26	11.7	27	7
C[C@H]1CC[C@H](OC(=O)OC[C@@]2(C#N)O[C@@H](c3ccc4c(N)ncnn34)[C@H](O)[C@@H]2O)CC1 [Compound 40, ((2R,3S,4R,5S)-5-(4-aminopyrrolo[2,1-f][1,2,4]triazin-7-yl)-2-cyano-3,4-dihydroxytetrahydrofuran-2-yl)methyl ((1r,4R)-4-methylcyclohexyl) carbonate]	29.3	9.48	15.4	36	6
